From US10835548B2, “Metronomic oral gemcitabine for cancer therapy” (priority 2016, dated 2020)
Like-named read-outs stand apart in the source and are kept apart here.

Legend:
[1] = test system: CFPAC-1 pancreatic cancer xenografts; assay: 5FU injection followed by GEMORAL in CFPAC-1 xenografted mouse model; assay type: in vivo, BALB/c nude mice
Description: Pancreatic cancer monotherapy using 5-fluorouracil (5FU) injection is known. […] We investigated oral metronomic GEM administration as a second-line treatment in 5FU-non-responsive pancreatic tumors using a xenograft model. To prepare the xenografted mice used in the study, 1×10^6 human CFPAC-1 pancreatic cancer cells were transplanted subcutaneously on the right flank of 6 week old male BALB/c nude mice. Tumor growth was observed once a week, tumor volume was measured as L×W^2/2 by caliper, and mice were selected for inclusion in the study when their tumor volume reached about 131 cubic millimeters. […] The day on which mice were first dosed was designated “Day 0” of the study, and the study continued for 112 days. Mice of Group 1 were orally administered 10 mg/kg GEMORAL every other day (i.e., Q2D×56), beginning on day 0 of the study and extending through the end of the study. […] Beginning on day 63 of the study, the mice were orally administered 10 mg/kg GEMORAL every other day (i.e., Q2D×25) through the end of the study. […] Beginning on day 21 of the study, the mice were orally administered 10 mg/kg GEMORAL every other day (i.e., Q2D×46) through the end of the study. […] They were intraperitoneally injected with saline on days 0, 3, 6, and 9 of the study (i.e., Q3D×4). […]

[2] = intravenous infusion, human cancer patients; cited from earlier work
[3] = MTD of GEM intravenous infusion regime in human cancer patients (Fossella et al.); assay type: in vivo
Description: For GEM, others have determined MTD values for human cancer patients. For example, Fossella et al. (1997, J. Clin. Oncol. 15:310-316) estimated an MTD of 2,400 mg/m^2/week for a GEM intravenous infusion regime regime (2,400 mg/m^2 corresponding to 3,893 mg/60 kg for a human patient, equal to 64.988 mg/kg). Labeling for a commercial GEM product, marketed under the brand name GEMZAR (Eli Lilly and Co.) recommends an intravenous dosage of 1,000 or 1,250 mg/m^2. In details, GEMZAR dosage administration is conducted at a dose of 1,000 mg/m^2, corresponding to 1,622 mg/60 kg for a human patient, equal to 27.03 mg/kg, administered on Days 1 and 8 or Days 1, 8, and 15 of a 21-day cycle, or at a dose of 1,250 mg/m^2, corresponding to 2,027 mg/60 kg for a human patient, equal to 33.878 mg/kg, administered on Days 1, 8, and 15 of a 28-day cycle.

[4] = test system: HuCCT1 cholangiocarcinoma xenografts; assay: Xenografted mouse model of human cholangiocarcinoma cell line HuCCT1; assay type: in vivo, BALB/c nude mice; conditions: Group 1: GEM 60 mg/kg i.p. Q3D×4
Description: Example 3 is a study in which the effects of GEM upon mice into which cells of human cholangiocarcinoma cell line HuCCT1 were xenografted. The xenografted mice were then treated with one of five treatment regimens and the results observed over the study period of 90 days.
To prepare the xenografted mice used in the study, 1×10^6 HuCCT1 human cholangiocarcinoma cells were transplanted subcutaneously on the right flank of 6 week old male BALB/c nude mice. Tumor growth was observed once a week and the tumor volume was measured as L×W^2/2 by caliper. Tumor development in the xenografted mice was then observed, and 40 such mice were selected for inclusion in the study when their tumor volume reached about 124 cubic millimeters. The mice were divided into 5 groups of 8 mice each for the study. The day on which mice were first dosed was designated “Day 0” of the study, and the study continued for 90 days.
Mice of Group 1 were intraperitoneally injected with 60 mg/kg of GEM on days 0, 3, 6, and 9 of the study (i.e., Q3D×4) and were not further treated thereafter.
Mice of Group 2 were intraperitoneally injected with 60 mg/kg of GEM on days 0, 3, 6, and 9 of the study (i.e., Q3D×4). Beginning on day 13 of the study, the mice were orally administered 10 mg/kg GEM in the GEMORAL composition (hereinafter “10 mg/kg GEMORAL”) every other day (i.e., Q2D×40) through the end of the study.
Mice of Group 3 were intraperitoneally injected with 60 mg/kg of GEM on days 0, 3, 6, and 9 of the study (i.e., Q3D×4). Also beginning on day 1 of the study, the mice were orally administered 10 mg/kg GEMORAL every other day (i.e., Q2D×46) through the end of the study.
Mice of Group 4 were orally administered 10 mg/kg GEMORAL every other day (i.e., Q2D×46), beginning on day 1 of the study and extending through the end of the study.
(§1) Mice of Group 5 were controls and were not administered GEM. They were intraperitoneally injected with saline on days 0, 3, 6, and 9 of the study (i.e., Q3D×4). Beginning on day 13 of the study, the mice were orally administered distilled, deionized water every other day (i.e., Q2D×40) through the end of the study.
The study was continued until day 90 and body weight losses among the mice of the various Groups were observed. In Group 3, all mice lost over 20% body weight by day 12.
Values reflecting anti-tumor responses, as compared with vehicle treatment (T/C %) on different study days are indicated in Table 2. […] It is noteworthy that by day 12 the cumulative dose of GEM for Group 4 was only about 25% that of Group 1.

[5] = test system: patient-derived human cholangiocarcinoma xenografts; assay: Xenografted mouse model of patient-derived human cholangiocarcinoma; assay type: in vivo; conditions: Group 1: GEM 60 mg/kg i.p. Q3D×4
Description: This example describes a study in which the effects of gemcitabine upon mice into which portions of a human patient-derived cholangiocarcinoma were xenografted. The xenografted mice were then treated with one of five treatment regimens and the results observed.
To prepare the xenografted mice used in the study, primary human cholangiocarcinoma fragments obtained from human patients were injected into “stock” male BALB/c nude mice. Subsequently, tumor fragments (roughly 2-3 millimeters in diameter) were harvested from the “stock” mice and inoculated subcutaneously into the right flank of other male BALB/c nude mice. Tumor development in the inoculated mice was then observed, and 40 such mice were selected for inclusion in the study when their tumor volume reached about 180 cubic millimeters (volume was assessed by multiplying tumor length by ½ (tumor width squared) (i.e., L×W^2/2), length and width being measured using a caliper). The mice were divided into 5 groups of 8 mice each for the study, all mice in each group having tumors of approximately equal size. The day on which mice were first dosed was designated “Day 1” of the study, and the study continued for 76 days. The mice were divided into Groups 1, 2, 3, 4, and 5. Mice of each group were treated identically.
Mice of Group 1 were intraperitoneally injected with 60 mg/kg of GEM on days 1, 4, 7, and 10 of the study (i.e., Q3D×4) and were not further treated thereafter. […]
as §1, with “1, 4, 7,” for “0, 3, 6,”, “10” for “9”, “Q2D×32)” for “Q2D×40)”
The study was continued until day 76 and the body weight losses among the mice of the various Groups were observed. […] For Group 3, 6 of 8 mice were dead by day 10.
Values reflecting anti-tumor responses, as compared with vehicle treatment (T/C %, calculated as the ratio of average tumor volume in treatment group vs. average tumor volume in the control group {Group 5}, expressed as a percentage) on different study days are indicated in Table 1.

[6] = test system: CFPAC-1 pancreatic cancer xenografts; assay: Xenografted mouse model of human pancreatic cancer cell line CFPAC-1; assay type: in vivo, BALB/c nude mice; conditions: Group 1: GEM 120 mg/kg i.p. Q3D×23
Description: Example 4 is a study in which the effects of GEM upon mice into which cells of human pancreatic cancer cell line CFPAC-1 were xenografted.
To prepare the xenografted mice used in the study, 1×10^6 human CFPAC-1 pancreatic cancer cells were transplanted subcutaneously on the right flank of 6 week old male BALB/c nude mice. Tumor growth was observed once a week and the tumor volume was measured as L×W^2/2 by caliper. Tumor development in the xenografted mice was then observed, and 48 such mice were selected for inclusion in the study when their tumor volume reached about 141 cubic millimeters. The mice were divided into 6 groups of 8 mice each for the study. The day on which mice were first dosed was designated “Day 0” of the study, and the study continued for 91 days.
Mice of Group 1 were intraperitoneally injected with 120 mg/kg of GEM on day 0 and every third day thereafter through day 66 (i.e., Q3D×23) and were not further treated thereafter.
Mice of Group 2 were intraperitoneally injected with 120 mg/kg of GEM on days 0, 3, 6, and 9 of the study (i.e., Q3D×4). Beginning on day 12 of the study, the mice were orally administered 10 mg/kg GEM in the GEMORAL composition (hereinafter “10 mg/kg GEMORAL”) every other day (i.e., Q2D×28) through day 66; the mice were not further treated thereafter.
Mice of Group 3 were intraperitoneally injected with 120 mg/kg of GEM on days 0, 3, 6, and 9 of the study (i.e., Q3D×4). Beginning on day 12 of the study, the mice were orally administered 3 mg/kg GEM in the GEMORAL composition (hereinafter “3 mg/kg GEMORAL”) every day (i.e., QD×55) through day 66; the mice were not further treated thereafter.
Mice of Group 4 were orally administered 3 mg/kg GEMORAL every day (i.e., QD×92), beginning on day 0 of the study and extending through the end of the study.
Mice of Group 5 were orally administered 10 mg/kg GEMORAL every other day (i.e., Q2D×46), beginning on day 0 of the study and extending through the end of the study.
Mice of Group 6 were controls and were not administered GEM. […]

O=c1[nH]cc(F)c(=O)[nH]1 [5FU, 5-fluorouracil]
anti-tumor response attributable to 5FU treatment ([1]; Group 2: 5FU 20 mg/kg i.p. thrice weekly, first 9 weeks): No significant anti-tumor response | anti-tumor response attributable to 5FU treatment ([1]; Group 3: 5FU 20 mg/kg i.p. thrice weekly, first 3 weeks): No significant anti-tumor response

Nc1ccn([C@@H]2O[C@H](CO)[C@@H](O)C2(F)F)c(=O)n1 [GEM, gemcitabine]
MTD [2]: 2,400 mg/m^2/week | MTD (corresponding dose for a human patient) ([3]; converted from 2,400 mg/m^2): 3,893 mg/60 kg | MTD ([3]; human, in vivo, converted from 2,400 mg/m^2, read-out: MTD (corresponding dose per body weight)): 65 mg/kg | T/C ([4]; Day 12): 54% | T/C ([4]; Day 37): 60% | T/C ([4]; Day 58): 93% | T/C ([4]; Day 76): 96% | T/C ([4]; Day 90): 82% | mean survival time (MST) [4]: 69 days | survival rate ([4]; day 90, Kaplan-Maier): 50% | maximum tumor growth inhibition value ([4]; on day 27): 47% | T/C ([5]; Day 14): 52% | T/C ([5]; Day 42): 22% | T/C ([5]; Day 73): 46% | T/C ([5]; Day 76): 49% | tumor growth after end of dosing ([5]; after day 11): significant tumor growth after completing the scheduled dosing | mice dead (died or tumor size >1000 cubic millimeters) ([5]; by day 76): 4 of 8 | days at which at least some mice were tumor free [6]: 44 to 91 days | mice tumor free ([6]; at day 91): 6/8 | maximum anti-tumor response, T/C ([6]; on day 81): 0%
